Source: US6528494B2 (priority 1996, dated 2003)
Structures can show the parent of a compound that is named as a salt.

Tests used:
Format in all cases: cell-based
[1] = target: T1, adenosine 1 receptor (Homo sapiens, UniProt P30542); test: Agonist activity against adenosine 1 receptor (CHO cells, forskolin-enhanced cAMP/SPAP reporter); details: CHO cells transfected with human receptor; forskolin-enhanced cAMP via SPAP; mean of all the versions tested
T1 sequence (P30542 1-326): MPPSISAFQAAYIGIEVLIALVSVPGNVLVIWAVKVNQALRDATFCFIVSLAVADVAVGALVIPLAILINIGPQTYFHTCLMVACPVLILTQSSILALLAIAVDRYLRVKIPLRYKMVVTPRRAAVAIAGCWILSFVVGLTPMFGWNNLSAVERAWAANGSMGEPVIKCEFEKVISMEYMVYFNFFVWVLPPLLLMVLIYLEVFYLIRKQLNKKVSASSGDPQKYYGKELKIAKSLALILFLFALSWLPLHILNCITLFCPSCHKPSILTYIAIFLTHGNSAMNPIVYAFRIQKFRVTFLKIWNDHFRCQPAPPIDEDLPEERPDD
Method: (§1) (1) Agonist activity against adenosine 2a, adenosine 1 and adenosine 3 receptor subtypes.
(§2) The effect of test compounds was determined by their effects on basal levels of cAMP (A2a) or on forskolin-enhanced cAMP (A1 and A3) as reflected by changes in levels of SPAP.

[2] = target: T2, adenosine 3 receptor (Homo sapiens, UniProt P0DMS8); test: Agonist activity against adenosine 3 receptor (CHO cells, forskolin-enhanced cAMP/SPAP reporter); details: CHO cells transfected with human receptor; forskolin-enhanced cAMP via SPAP; mean of all the versions tested
T2 sequence (P0DMS8 1-318): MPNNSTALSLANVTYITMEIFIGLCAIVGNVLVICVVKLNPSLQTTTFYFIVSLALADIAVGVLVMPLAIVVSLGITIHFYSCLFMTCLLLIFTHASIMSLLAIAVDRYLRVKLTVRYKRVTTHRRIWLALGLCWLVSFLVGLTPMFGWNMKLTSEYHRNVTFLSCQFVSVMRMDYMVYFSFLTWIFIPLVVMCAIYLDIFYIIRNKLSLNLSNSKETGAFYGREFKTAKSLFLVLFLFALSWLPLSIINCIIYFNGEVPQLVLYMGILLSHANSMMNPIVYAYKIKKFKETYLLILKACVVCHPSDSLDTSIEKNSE
Method: as §1, §2

[3] = target: adenosine 2a receptor (Homo sapiens, UniProt P29274); test: Agonist activity against adenosine 2a receptor (CHO cells, cAMP/SPAP reporter); details: CHO cells transfected with human receptor; basal cAMP via SPAP; mean of all the versions tested
Chain of adenosine 2a receptor (P29274 whole entry): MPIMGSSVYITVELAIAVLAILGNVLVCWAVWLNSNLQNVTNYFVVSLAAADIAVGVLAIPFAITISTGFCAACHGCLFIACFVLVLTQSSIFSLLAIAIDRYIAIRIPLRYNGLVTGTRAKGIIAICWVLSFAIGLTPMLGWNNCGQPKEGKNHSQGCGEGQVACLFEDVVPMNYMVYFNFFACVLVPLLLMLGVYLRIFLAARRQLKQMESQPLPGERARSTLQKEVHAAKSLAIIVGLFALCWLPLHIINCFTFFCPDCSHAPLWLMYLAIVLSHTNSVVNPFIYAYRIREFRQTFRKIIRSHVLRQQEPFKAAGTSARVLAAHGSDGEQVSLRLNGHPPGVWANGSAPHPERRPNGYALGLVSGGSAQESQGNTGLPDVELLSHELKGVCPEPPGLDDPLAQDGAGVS
Method: as §1, §2

SMILES: Cn1nnc(C2OC(n3cnc4c(NC(CO)Cc5ccccc5)nc(NCCN5CCCC5)nc43)C(O)C2O)n1 [Example 111, (2R,3R,4S,5R)-2-[6-(1S-Hydroxymethyl-2-phenyl-ethylamino)-2-(2-pyrrolidin-1-yl-ethylamino)-purin-9-yl]-5-(2-methyl-2H-tetrazol-5-yl)-tetrahydro-furan-3,4-diol bis(Formate)]
- A1 EC50 as a ratio of that of NECA [1]: 298.50
- A3 EC50 as a ratio of that of NECA [2]: >315
- A2a EC50 as a ratio of that of NECA [3]: 2.92

SMILES: CCn1nnc([C@H]2O[C@@H](n3cnc4c(NCC(c5ccccc5)c5ccccc5)nc(NCCN5CCCC5)nc43)[C@H](O)[C@@H]2O)n1.O=C(O)C(F)(F)F.O=C(O)C(F)(F)F.O=C(O)C(F)(F)F [Example 43, (2R,3R,4S,5R)-2-[6-(2,2-Diphenyl-ethylamino)-2-(2-pyrrolidin-1-yl-ethylamino)-purin-9-yl]-5-(2-ethyl-2H-tetrazol-5-yl)-tetrahydro-furan-3,4-diol tris(Trifluoroacetate)]
- A1 EC50 as a ratio of that of NECA [1]: 71.35
- A3 EC50 as a ratio of that of NECA [2]: >546
- A2a EC50 as a ratio of that of NECA [3]: 2.23

SMILES: CCn1nnc([C@H]2O[C@@H](n3cnc4c(N)nc(NCCc5ccc(N)cc5)nc43)[C@H](O)[C@@H]2O)n1.O=CO [Example 14, (2R,3R,4S,5R)-2-{6-Amino-2-[2-(4-amino-phenyl)-ethylamino]-purin-9-yl}-5-(2-ethyl-2H-tetrazol-5-yl)-tetrahydro-furan-3,4-diol Formate]
- A1 EC50 as a ratio of that of NECA [1]: 181.1
- A3 EC50 as a ratio of that of NECA [2]: >209
- A2a EC50 as a ratio of that of NECA [3]: 0.55

SMILES: CCn1nnc(C2OC(n3cnc4c(NCCc5ccccc5)nc(NC(CO)Cc5ccccc5)nc43)C(O)C2O)n1 [Example 79, (2R,3S,4R,5R)-2-(2-Ethyl-2H-tetrazol-5-yl)-5-[2-(1S-hydroxymethyl-2-phenyl-ethylamino)-6-phenethylamino-purin-9-yl]-tetrahydro-furan-3,4-diol Formate]
- A1 EC50 as a ratio of that of NECA [1]: 165.30
- A3 EC50 as a ratio of that of NECA [2]: >155
- A2a EC50 as a ratio of that of NECA [3]: 2.40

SMILES: Cn1cnc(CCNc2nc(NCCc3ccccc3)c3ncn([C@@H]4O[C@H](c5nnn(C)n5)[C@@H](O)[C@H]4O)c3n2)c1.O=CO [Example 34, (2R,3R,4S,5R)-2-{2-[2-(1-Methyl-1H-imidazol-4-yl)-ethylamino]-6-phenethylamino-purin-9-yl}-5-(2-methyl-2H-tetrazol-5-yl)-tetrahydro-furan-3,4-diol Formate]
- A1 EC50 as a ratio of that of NECA [1]: 1316
- A3 EC50 as a ratio of that of NECA [2]: >173
- A2a EC50 as a ratio of that of NECA [3]: 0.13

SMILES: CCn1nnc([C@H]2O[C@@H](n3cnc4c(NCC(c5ccccc5)c5ccccc5)nc(NCCO)nc43)[C@H](O)[C@@H]2O)n1.O=C(O)C(F)(F)F [Example 47, (2R,3R,4S,5R)-2-[6-(2,2-Diphenyl-ethylamino)-2-(2-hydroxy-ethylamino)-purin-9-yl]-5-(2-ethyl-2H-tetrazol-5-yl)-tetrahydro-furan-3,4-diol Trifluoroacetate]
- A1 EC50 as a ratio of that of NECA [1]: 27.40
- A3 EC50 as a ratio of that of NECA [2]: >216
- A2a EC50 as a ratio of that of NECA [3]: 1.06

SMILES: CCn1nnc(C2OC(n3cnc4c(NCc5cccc(I)c5)nc(NC5CCNC5)nc43)C(O)C2O)n1 [Example 23, (2R,3S,4R,5R)-2-(2-Ethyl-2H-tetrazol-5-yl)-5-[6-(3-iodo-benzylamino)-2-(pyrrolidin-3R-ylamino)-purin-9-yl]-tetrahydro-furan-3,4-diol Diformate]
- A1 EC50 as a ratio of that of NECA [1]: 159
- A3 EC50 as a ratio of that of NECA [2]: >336
- A2a EC50 as a ratio of that of NECA [3]: 0.8

SMILES: CCn1nnc([C@H]2O[C@@H](n3cnc4c(NCc5ccccc5)nc(NCCc5cn(C)cn5)nc43)[C@H](O)[C@@H]2O)n1 [Example 5, (2R,3R,4S,5R)-2-{6-Benzylamino-2-[2-(1-methyl-1H-imidazol-4-yl)-ethylamino]-purin-9-yl}-5-(2-ethyl-2H-tetrazol-5-yl)-tetrahydro-furan-3,4-diol]
- A1 EC50 as a ratio of that of NECA [1]: 700.4
- A3 EC50 as a ratio of that of NECA [2]: >181
- A2a EC50 as a ratio of that of NECA [3]: 0.76

SMILES: CC(C)n1nnc(C2OC(n3cnc4c(NC5CCCC5)nc(NCCN5CCCCC5)nc43)C(O)C2O)n1 [Example 80, (2R,3R,4S,5R)-2-[6-Cyclopentylamino-2-(2-piperidin-1-yl-ethylamino)-purin-9-yl]-yl)-5-(2-isopropyl-2H-tetrazol-5-yl)-tetrahydro-furan-3,4-diol bis(Formate)]
- A1 EC50 as a ratio of that of NECA [1]: 77.10
- A3 EC50 as a ratio of that of NECA [2]: >164
- A2a EC50 as a ratio of that of NECA [3]: 2.37

SMILES: CCC(CC)Nc1nc(NCCN2CCOCC2)nc2c1ncn2C1OC(c2nnn(C)n2)C(O)C1O.O=CO.O=CO [Example 91, (2R,3R,4S,5R)-2-[6-(1-Ethyl-propylamino)-2-(2-morpholin-4-yl-ethylamino)-purin-9-yl]-5-(2-methyl-2H-tetrazol-5-yl)-tetrahydro-furan-3,4-diol Diformate]
- A1 EC50 as a ratio of that of NECA [1]: >7461.00
- A3 EC50 as a ratio of that of NECA [2]: >270
- A2a EC50 as a ratio of that of NECA [3]: 1.75

SMILES: CCn1nnc([C@H]2O[C@@H](n3cnc4c(N)nc(Nc5ccc(F)cc5)nc43)[C@H](O)[C@@H]2O)n1.O=C(O)C(F)(F)F [Example 13, (2R,3R,4S,5R)-2-[6-Amino-2-(4-fluoro-phenylamino)-purin-9-yl]-5-(2-ethyl-2H-tetrazol-5-yl)-tetrahydro-furan-3,4-diol Trifluoroacetate]
- A1 EC50 as a ratio of that of NECA [1]: 266.9
- A3 EC50 as a ratio of that of NECA [2]: >232
- A2a EC50 as a ratio of that of NECA [3]: 0.64

SMILES: CCn1nnc(C2OC(n3cnc4c(N)nc(NC5CCCC5O)nc43)C(O)C2O)n1 [Example 10, (2R,3R,4S,5R)-2-[6-Amino-2-(2R-hydroxy-cyclopent-1R-ylamino)-purin-9-yl]-5-(2-ethyl-2H-tetrazol-5-yl)-tetrahydro-furan-3,4-diol Hydrochloride]
- A1 EC50 as a ratio of that of NECA [1]: 22.1
- A3 EC50 as a ratio of that of NECA [2]: 3.66
- A2a EC50 as a ratio of that of NECA [3]: 0.11

SMILES: CCC(CC)Nc1nc(NC2CCN(Cc3ccccc3)C2)nc2c1ncn2C1OC(c2nnn(CC)n2)C(O)C1O.O=CO.O=CO [Example 65, (2R,3R,4S,5R)-2-[2-(1-Benzyl-pyrrolidin-3-ylamino)-6-(1-ethyl-propylamino)-purin-9-yl]-5-(2-ethyl-2H-tetrazol-5-yl)-tetrahydro-furan-3,4-diol bis(Formate)]
- A1 EC50 as a ratio of that of NECA [1]: 61.50
- A3 EC50 as a ratio of that of NECA [2]: >158
- A2a EC50 as a ratio of that of NECA [3]: 2.46

SMILES: CCn1nnc([C@H]2O[C@@H](n3cnc4c(N)nc(NC5CCCC5)nc43)[C@H](O)[C@@H]2O)n1.O=C(O)C(F)(F)F.O=C(O)C(F)(F)F [Example 12]
- A1 EC50 as a ratio of that of NECA [1]: 31.2
- A3 EC50 as a ratio of that of NECA [2]: >243
- A2a EC50 as a ratio of that of NECA [3]: 0.57

SMILES: CCn1nnc([C@H]2O[C@@H](n3cnc4c(NCCC(C)(C)C)nc(N[C@@H]5CCC[C@H]5O)nc43)[C@H](O)[C@@H]2O)n1.O=C(O)C(F)(F)F.O=C(O)C(F)(F)F [Example 60]
- A1 EC50 as a ratio of that of NECA [1]: 69.10
- A3 EC50 as a ratio of that of NECA [2]: >385
- A2a EC50 as a ratio of that of NECA [3]: 4.24

SMILES: CCn1nnc([C@H]2O[C@@H](n3cnc4c(NCC(c5ccccc5)c5ccccc5)nc(NC5CCSCC5)nc43)[C@H](O)[C@@H]2O)n1.O=C(O)C(F)(F)F [Example 114]
- A1 EC50 as a ratio of that of NECA [1]: 242.2
- A3 EC50 as a ratio of that of NECA [2]: >2972.0
- A2a EC50 as a ratio of that of NECA [3]: 0.58

SMILES: Cn1nnc(C2OC(n3cnc4c(NCC(c5ccccc5)c5ccccc5)nc(NCCN5CCOCC5)nc43)C(O)C2O)n1.O=CO.O=CO (stereo not drawn) [Example 98]
- A1 EC50 as a ratio of that of NECA [1]: 126.50
- A3 EC50 as a ratio of that of NECA [2]: >160
- A2a EC50 as a ratio of that of NECA [3]: 2.28

SMILES: CCn1nnc(C2OC(n3cnc4c(NCCC(C)(C)C)nc(NC(CO)Cc5ccccc5)nc43)C(O)C2O)n1 [Example 52, (2R,3R,4S,5R)-2-[6-(3,3-Dimethyl-butylamino)-2-(1S-hydroxymethyl-2-phenyl-ethylamino)-purin-9-yl]-5-(2-ethyl-2H-tetrazol-5-yl)-tetrahydro-furan-3,4-diol Acetate]
- A1 EC50 as a ratio of that of NECA [1]: 481.30
- A3 EC50 as a ratio of that of NECA [2]: >736
- A2a EC50 as a ratio of that of NECA [3]: 9.90

SMILES: Cn1nnc(C2OC(n3cnc4c(NCC(c5ccccc5)c5ccccc5)nc(NCCN5CCCCC5)nc43)C(O)C2O)n1.O=CO.O=CO (stereo not drawn) [Example 26]
- A1 EC50 as a ratio of that of NECA [1]: 241.4
- A3 EC50 as a ratio of that of NECA [2]: >329
- A2a EC50 as a ratio of that of NECA [3]: 0.86

SMILES: Cn1nnc(C2OC(n3cnc4c(NCC(c5ccccc5)c5ccccc5)nc(NC5CCNC5)nc43)C(O)C2O)n1 [Example 94, (2R,3R,4S,5R)-2-[6-(2,2-Diphenyl-ethylamino)-2-(pyrrolidin-3R-ylamino)-purin-9-yl]-5-(2-methyl-2H-tetrazol-5-yl)-tetrahydro-furan-3,4-diol Diformate]
- A1 EC50 as a ratio of that of NECA [1]: 385.90
- A3 EC50 as a ratio of that of NECA [2]: >411
- A2a EC50 as a ratio of that of NECA [3]: 2.39
